Assay results published in patent US20240165077A1, “COMPOSITIONS AND METHODS FOR TREATING NEUROLOGIC DISEASES” (Cognition Therapeutics, Inc., priority 2021, published 2024).
Like-named read-outs stand apart in the source and are kept apart here.

Experiments:
[1] = tested on: α-synuclein oligomers (α-synO) binding to neuronal synapses; assay: Displacement of alpha-synuclein oligomers: α-synO binding to neuronal synapses (ASYO5 immunostaining); type: cell-based, Rat; conditions: 24 hours; for α-synO binding to neuronal synapses: synthetic α-synO, FIG. 1D/1E
Procedure: FIG. 1A is a representative image of a neuron culture with a seeding control (7.1 nM) treated with a vehicle for 24 hours. Cultures were immunostained for the neurite marker microtubule associated protein 2 (MAP2; green) and for α-synuclein oligomers using an alpha-synuclein, oligomer-specific antibody (ASYO5 antibody, Agrisera; red). No α-synOs are present in the vehicle treated cultures.
FIG. 1B is a representative image of a neuron culture treated with synthetic α-synuclein oligomers (1 μM) for 24 hours and immunostained for the neurite marker microtubule associated protein 2 (MAP2; green) and for α-synuclein oligomers using an alpha-synuclein, oligomer-specific antibody (ASYO5 antibody, Agrisera; red).
FIG. 1C is a representative image of a neuron culture treated with synthetic α-synuclein oligomers (1 μM) and Compound A:
(10 μM) for 24 hours and immunostained for the neurite marker microtubule associated protein 2 (MAP2; green) and for α-synuclein oligomers using an alpha-synuclein, oligomer-specific antibody (ASYO5 antibody, Agrisera; red).
FIG. 1D is a graphical representation of binding affinity of α-synuclein oligomers (α-SynO) to neuronal synapses after treatment with vehicle (α-SynO) or treatment with Compound B
FIG. 1E is a graphical representation of binding affinity of α-synuclein oligomers (α-SynO) to neuronal synapses after treatment with vehicle (α-SynO) or treatment with Compound A
(§1) Rat neuronal cultures were treated with vehicle (an a seeding control (7.1 nM) without α-synuclein oligomers (α-synOs)) or synthetic α-synOs for 24 hours. Cultures were immunostained for the neurite marker microtubule associated protein 2 (MAP2; green) and for α-synOs using an alpha-synuclein, oligomer-specific antibody (ASYO5 antibody, Agrisera; red).

[2] = tested on: α-synO-induced vesicle trafficking deficits; assay: Vesicle trafficking in neuronal cultures treated with α-synuclein oligomers; type: cell-based, Rat; conditions: α-synOs 1.0 μM final concentration; for Emax / EC50: Rattus norvegicus; for Emax: FIG. 1F/1G, read-out: Emax, amelioration of α-synO vesicle trafficking deficit; for EC50: read-out: EC50, amelioration of α-synO vesicle trafficking deficit
Procedure: FIG. 1F is a graphical representation of vesicular trafficking in untreated control cultures, cultures treated with α-synuclein oligomers (α-SynO) for 24 hours, or cultures treated with α-synuclein oligomers (α-SynO) and Compound B
FIG. 1G is a graphical representation of vesicular trafficking in untreated control cultures, cultures treated with α-synuclein oligomers (α-SynO) for 24 hours, or cultures treated with α-synuclein oligomers (α-SynO) and Compound A
as §1
Untreated vehicle control cultures without any α-SynO addition lack α-synO immunoreactivity (FIG. 1A). […] FIGS. 1D, 1E, 1F, 1G: * p<0.05, **p<0.01, […], ****p<0.001, one-way ANOVA for drug concentration vs control with Dunnett's post-test.

α-synuclein = assay: Animal models of Parkinson's disease (AAV1/2 A53T-α-synuclein overexpression; intrastriatal α-synuclein preformed fibrils); type: in vivo, rat; conditions: both models of Parkinson's disease
From the text: Examples include models of overexpression of α-synuclein or models that mimic the propagation of α-synuclein throughout the brain. One such overexpression model is the rat AAV1/2 A53T-α-synuclein model (Koprich, J. B., Johnston, T. H., Huot, P., Reyes, M. G., Espinosa, M., Brotchie, J. M., “Progressive neurodegeneration or endogenous compensation in an animal model of Parkinson's disease produced by decreasing doses of alpha-synuclein,” PLoS One, 6:1-9 (2011), which is hereby incorporated herein by reference in its entirety), where induction of α-synuclein overexpression is accompanied by loss of nigral dopaminergic cells, lower dopamine transporter levels, lower dopamine levels and motor deficits. Another example uses intrastriatal injection of preformed fibrils of α-synuclein to model propagation of Parkinson's pathology throughout the brain (Duffy, M. F., Collier, T. J., Patterson, J. R., Kemp, C. J., Fischer D. L., Stoll, A. C., Sortwell, C. E., “Quality over quantity: Advantages of using alpha-synuclein preformed fibrils triggered synucleinopathy to model idiopathic Parkinson's disease,” Front Neurosci, 12:1-10 (2018) and Patterson, J. R., Duffy, M. F., Kemp, C. J., Howe, J. W., Collier, T. J., Stoll, A. C., Miller, K. M., Patel, P., Levine, N., Moore, D. J., Luk, K. C., Fleming, S. M., Kanaan, N. M, Paumier, K. L., El Agnaf, O. M. A., Sortwell, C. […]

| SMILES | punctate binding of α-synOs along neurites ([1]; 1 μM α-synO, compound 10 μM, FIG. 1B/1C) | α-synO binding to neuronal synapses [1] | Emax [2] [%] | EC50 ([2]; FIG. 1G) [nM] | rescue of α-synO-induced trafficking deficits [2] | deficits characteristic of Parkinson's disease and their propagation throughout the brain (α-synuclein) | EC50 ([2]; FIG. 1F) [nM] |
| --- | --- | --- | --- | --- | --- | --- | --- |
| CC(C)(C)Oc1cc(CCC(C)(C)N2Cc3ccc(S(C)(=O)=O)cc3C2)ccc1O [Compound A] | punctate binding of α-synOs along neurites in the absence (FIG. 1B) but not presence | block α-synO binding to neuronal synapses in a concentration-dependent manner | 87 | 650 | rescue α-synO-induced trafficking deficits in a concentration-dependent manner | reduces some or all deficits that are characteristic of Parkinson's disease | – |
| CC(C)=C[C@@H](CC(C)(C)c1ccc(C(F)(F)F)cc1)N1CCC(C2CCOCC2)CC1 [Compound B] | – | block α-synO binding to neuronal synapses in a concentration-dependent manner | 92 | – | rescue α-synO-induced trafficking deficits in a concentration-dependent manner | reduces some or all deficits that are characteristic of Parkinson's disease | 310 |
